Tested on: SARS-CoV-2
Assay: microbe, parasite or virus in culture
Conditions: Severe acute respiratory syndrome coronavirus 2, Vero C1008, 48 h

Compound | IC50 [µM] | IC50 (read-out: pIC50 (converted)) [µM]
CCCCc1cc2ccccc2c(OCCN(C)C)n1 [DIMETHISOQUIN] | > 20 | > 20
C[C@@H]1CCN(C(=O)CC#N)C[C@@H]1N(C)c1ncnc2[nH]ccc12 [TOFACITINIB] | > 20 | > 20
CCc1nc(N)nc(N)c1-c1ccc(Cl)c(Cl)c1 [ETOPRINE] | > 20 | > 20
COC1COCCC1N[C@@H]1CC[C@@](C(=O)N2CCc3ncc(C(F)(F)F)cc3C2)(C(C)C)C1 (some centres undefined) | > 20 | > 20
O=C1c2cccc(O)c2C(=O)c2c(O)cccc21 [DANTHRON] | > 20 | > 20
Cc1n[nH]c(=O)[nH]c1=O | > 20 | > 20
COC(=O)CC(O)(CCC(C)(C)O)C(=O)OC1C(OC)=CC23CCCN2CCc2cc4c(cc2C13)OCO4 (centres undefined) | > 20 | > 20
CN1CCCC(CN2c3ccccc3Sc3ccccc32)C1 (centres undefined) [MEPAZINE] | > 20 | > 20
O=C(Nc1ccc(Cl)c(Cl)c1)C1=C(O)c2cc(Cl)ccc2S(=O)(=O)CC1 [ENOLICAM] | > 20 | > 20
CCC(=O)C(c1ccccc1)(c1ccccc1)C(C)CN(C)C (centres undefined) [ISOMETHADONE] | > 20 | > 20
CCOc1ccccc1O[C@H](c1ccccc1)[C@H]1CNCCO1 | > 20 | > 20
CN1CCc2cc(Cl)c(O)cc2[C@@H](c2ccccc2)C1 [SCH-23390] | > 20 | > 20
CC(=O)N[C@H]1[C@H]([C@H](O)[C@H](O)CO)OC(C(=O)O)=C[C@@H]1NC(=N)N [ZANAMIVIR] | > 20 | > 20
Cc1ccc(C23CNCC2C3)cc1 (centres undefined) [BICIFADINE] | > 20 | > 20
C[N+](C)(C)CC(=O)O [BETAINE] | > 20 | > 20
CN(C)[C@@H](CCOc1cccc2ccccc12)c1ccccc1 [DAPOXETINE] | > 20 | > 20
c1cncc([C@@H]2CCCCN2)c1 [ANABASINE] | > 20 | > 20
CCCc1nc(C(C)(C)O)c(C(=O)O)n1Cc1ccc(-c2ccccc2-c2nnn[nH]2)cc1 [OLMESARTAN] | > 20 | > 20
Oc1ccc(Cl)cc1Cc1cc(Cl)ccc1O [DICHLOROPHEN] | > 20 | > 20
Cc1ccccc1OCC(O)CO (centres undefined) [MEPHENESIN] | > 20 | > 20
C[C@H](O)[C@H](O)[C@H]1CNc2nc(N)[nH]c(=O)c2N1 [SAPROPTERIN] | > 20 | > 20
O=C1c2ccccc2CN2C(=O)c3ccccc3CN12 [DIFTALONE] | > 20 | > 20
CCC(CC)[C@@H](c1ccc(Nc2nc3ccccc3s2)cc1)n1cncn1 | > 20 | > 20
COC(=O)C(N)CCCNC(=N)N[N+](=O)[O-] (centres undefined) | > 20 | > 20
O=C1CN=C(c2ccccc2Cl)c2cc(Cl)ccc2N1 [DELORAZEPAM] | > 20 | > 20
O=C(O)c1ccc(C2CC2c2ccc(OCc3c(-c4c(Cl)cccc4Cl)noc3C3CC3)cc2Cl)cc1 (centres undefined) | > 20 | > 20

Compound | IC50 [µM] | IC50 (read-out: pIC50 (converted)) [µM]
C1=CN2CC(c3cccs3)N=C2S1 (centres undefined) | > 20 | > 20
CC(C)C(=O)OC[C@@]1(CCl)O[C@@H](n2ccc(N)nc2=O)[C@H](F)[C@@H]1OC(=O)C(C)C [LUMICITABINE] | > 20 | > 20
O=C1NC(=O)C(c2ccccc2)(c2ccccc2)N1 [PHENYTOIN] | > 20 | > 20
NC(=O)OC[C@H](O)c1ccccc1Cl | > 20 | > 20
C[C@]12CCC(=O)C=C1C=C[C@@H]1[C@@H]2CC[C@@]2(C)[C@H]1CC[C@@]21CCC(=O)O1 [CANRENONE] | > 20 | > 20
CCS(=O)(=O)CCn1c([N+](=O)[O-])cnc1C [TINIDAZOLE] | > 20 | > 20
O=C1NCCN1CCN1CCN([C@@H]2C[C@@H](c3ccc(F)cc3)c3ccccc32)CC1 [IRINDALONE] | > 20 | > 20
Nc1sc2c(c1C(=O)c1ccc(Cl)cc1)CCCC2 [T-62] | > 20 | > 20
Cc1ccc(C(=O)Nc2ccc(Oc3cc4cnn(C)c4cc3-c3cn[nH]c3)c(F)c2)c(=O)n1-c1ccc(F)cc1 [MERESTINIB] | > 20 | > 20
Cc1[nH]cnc1CSCCNc1nc(=O)c(Cc2ccc3c(c2)OCO3)c[nH]1 [OXMETIDINE] | > 20 | > 20
O=C(O)CCCN1CCC[C@H]1COc1ccc(Oc2ccc(Cl)cc2)cc1 | > 20 | > 20
CC1(C)[C@@H](O[C@H]2O[C@H](C(=O)O)[C@@H](O)[C@H](O)[C@H]2O[C@@H]2O[C@H](C(=O)O)[C@@H](O)[C@H](O)[C@H]2O)CC[C@]2(C)[C@H]3C(=O)C=C4[C@@H]5C[C@@](C)(C(=O)O)CC[C@]5(C)CC[C@@]4(C)[C@]3(C)CC[C@@H]12 [GLYCYRRHIZIN] | > 20 | > 20
CN1CCC(=C2c3ccccc3C=Cc3ccccc32)CC1 [CYPROHEPTADINE] | > 20 | > 20
CC(C)Cc1ccc(CC(=O)O)cc1 [IBUFENAC] | > 20 | > 20
NC(=O)NC1NC(=O)NC1=O (centres undefined) [ALLANTOIN] | > 20 | > 20
C=CC(=O)N1CCC(CNc2ncnc(N)c2-c2ccc(Oc3ccccc3)cc2)CC1 [EVOBRUTINIB] | > 20 | > 20
NC(COCc1ccccc1)C(=O)O (centres undefined) | > 20 | > 20
C[C@@H]1O[C@@H](O[C@H]2CC[C@]3(C=O)[C@H]4CC[C@]5(C)[C@@H](C6=CC(=O)OC6)CC[C@]5(O)[C@@H]4CC[C@]3(O)C2)[C@H](O)[C@H](O)[C@H]1O [CONVALLATOXIN] | > 20 | > 20
CCCCCCCCCCCCCCCC(=O)O [PALMITIC ACID] | > 20 | > 20
Cn1c([N+](=O)[O-])cnc1COC(N)=O [RONIDAZOLE] | > 20 | > 20
O=C(N[C@@H]1CC[C@@H](c2cccc(F)c2F)CN(CC(F)(F)F)C1=O)N1CCC(n2c(=O)[nH]c3ncccc32)CC1 [TELCAGEPANT] | > 20 | > 20
CCC(CC)C(c1ccc(Nc2nc3ccccc3s2)cc1)n1cncn1 (racemic) [TALAROZOLE] | > 20 | > 20
CCN(CC)CCOC(=O)C1(c2ccccc2)CCCC1 | > 20 | > 20
NNC(=O)CN1C(=O)CN=C(c2ccccc2)c2cc(Br)ccc21 | > 20 | > 20
NS(=O)(=O)c1cc(C(=O)NN2CC3C4CCC(C4)C3C2)ccc1Cl (centres undefined) | > 20 | > 20
COc1ccc(-c2cc3c(C)nc(N)nc3n([C@H]3CC[C@H](OCCO)CC3)c2=O)cn1 [PF-04691502] | > 20 | > 20

Compound | IC50 [µM] | IC50 (read-out: pIC50 (converted)) [µM]
CCN(CC)CCSC(=O)N(c1ccccc1)c1ccccc1 [PHENCARBAMIDE] | > 20 | > 20
O=C(O)Cc1sc2nc3ccccc3n2c1-c1ccc(Cl)cc1 [TILOMISOLE] | > 20 | > 20
OCCOCCN1CCN(C(c2ccccc2)c2ccc(Cl)cc2)CC1 (centres undefined) [HYDROXYZINE] | > 20 | > 20
NC(=O)O[C@@H](Cn1ncnn1)c1ccccc1Cl [CENOBAMATE] | > 20 | > 20
O=C(O)C[C@H](NC(=O)[C@@H]1CCCN(C(=O)CCC2CCNCC2)C1)c1cccnc1 [ELAROFIBAN] | > 20 | > 20
CCC(CCC(C)C1CCC2C3CC=C4CC(OC(C)=O)CCC4(C)C3CCC12C)C(C)C (centres undefined) | > 20 | > 20
CCOC(=O)C1=C(C)NC(C)=C(C(=O)OCC)C1c1cccc2nonc12 [DARODIPINE] | > 20 | > 20
CCn1c(=O)n(CCCN2CCN(c3cccc(Cl)c3)CC2)n[13c]1[13CH2][13CH3] | > 20 | > 20
CC(=O)[C@@]1(O)CC[C@H]2[C@@H]3CCC4=CC(=O)CC[C@]4(C)[C@H]3CC[C@@]21C [HYDROXYPROGESTERONE] | > 20 | > 20
O=C1c2cc(Cl)ccc2OC2CCON12 (centres undefined) [SECLAZONE] | > 20 | > 20
CC(C)c1cc(C(=O)N2Cc3ccc(CN4CCN(C)CC4)cc3C2)c(O)cc1O [ONALESPIB] | > 20 | > 20
CC12CCC(O)CC1CCC1[C@@H]2CC(O)C2(C)C(C3=CC(=O)OC3)CCC12O (some centres undefined) | > 20 | > 20
O=C(O)c1cn(-c2ccc(F)cc2)c2cc(N3CCNCC3)c(F)cc2c1=O [SARAFLOXACIN] | > 20 | > 20
Cc1ccn(-c2cc(Cl)ccc2[C@@H](Oc2cc(-c3ccc(C[C@H](N)C(=O)O)cc3)nc(N)n2)C(F)(F)F)n1 [TELOTRISTAT] | > 20 | > 20
O=C(O)CP(=O)(O)O [FOSFONET] | > 20 | > 20
COc1cccc(N2CCN(C3=Nc4c(F)cccc4C(CC(=O)O)N3c3cc(C(F)(F)F)ccc3OC)CC2)c1 (centres undefined) | > 20 | > 20
O=C1c2ccccc2C(=O)C1c1ccc(Br)cc1 [BROMINDIONE] | > 20 | > 20
Cc1noc(COc2ccccc2OCC(O)CNC(C)(C)C)n1 (centres undefined) | > 20 | > 20
CN1C(=O)C(O)N=C(c2ccccc2)c2cc(Cl)ccc21 (centres undefined) [TEMAZEPAM] | > 20 | > 20
Oc1c(Cl)cc(Cl)c(Cl)c1Cc1c(O)c(Cl)cc(Cl)c1Cl [HEXACHLOROPHENE] | > 20 | > 20
CCC1(CC)C(=O)C=CNC1=O [PYRITHYLDIONE] | > 20 | > 20
O=c1cc(-c2ccccc2)oc2cc(O)cc(O)c12 [CHRYSIN] | > 20 | > 20
CCCCOc1ccc(OCCCN2CCOCC2)cc1 [PRAMOXINE] | > 20 | > 20
CN1C(=O)CN2CCc3ccccc3C2c2cc(Cl)ccc21 (centres undefined) [CLAZOLAM] | > 20 | > 20
CN1[C@@H]2CC[C@H]1CC(O)C2 (some centres undefined) | > 20 | > 20

From ChEMBL document CHEMBL4651402, “Screening of ~5500 FDA-approved drugs and clinical candidates for anti-SARS-CoV-2 activity” (2021)
